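The compound was tested at five concentrations on cells cultured in 96-well plates, with a 48-hour exposure period. TGI denotes the concentration required for complete inhibition of growth.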 *1 amine or outer side, *2 acyl side, *3 side chain or, on linkers, in order; H or OH if unused. Where a SMILES comes first, the peptide text is derived from it. Bridges are numbered along the chain shown (N, C = ends). Roman numbers before positions name the chains, in order. [ ]: non-standard residue; d: D form. Actinocin(9to1) = Cc1c2oc3c(C)ccc(C(=O)[*:1])c3nc-2c(C(=O)[*:2])c(N)c1=O; X48 = O=C1CC(C(=O)[*:2])N([*:1])C1; NMeV = CN[CH](C(=O)O)C(C)C; Sar = CNCC(=O)O Some results are limits rather than exact numbers.

Test systems include HCC-2998 colon; UO-31 renal; RXF 393 renal; T-47D breast; HCT-116 colon; OVCAR-5 ovarian; NCI-H522 lung; SN12C renal; OVCAR-8 ovarian; SK-MEL-5 melanoma; RPMI-8226 leukemia; EKVX NSCLC; DU-145 prostate; SW-620 colon; NCI-H460 lung; MCF7 breast; SNB-19 CNS; IGROV1 ovarian; OVCAR-4 ovarian; HS 578T breast.
Common to all, as to test: NCI-60 cell line screen, 48 h

With `COc1cccc2c(NNc3ccccc3)c3ccc([N+](=O)[O-])cc3nc12`, the TGI was over 100 µM in the assay on HCC-2998 colon; 61 µM with UO-31 renal; over 100 µM with RXF 393 renal; over 100 µM with T-47D breast; over 100 µM in the assay on HCT-116 colon; over 100 µM in the assay with OVCAR-5 ovarian. Besides, the TGI with NCI-H522 lung, in the assay with SN12C renal, with OVCAR-8 ovarian, in the assay on SK-MEL-5 melanoma, in the assay on RPMI-8226 leukemia and in the assay on EKVX NSCLC was over 100 µM each time. The TGI in the assay on DU-145 prostate, in the assay on SW-620 colon, in the assay on NCI-H460 lung, with MCF7 breast, in the assay on SNB-19 CNS and in the assay with IGROV1 ovarian was over 100 µM throughout. Further, in the assay on OVCAR-4 ovarian, the TGI was over 100 µM.

With `C=C(C)CC1=C(OCC)C(OC)(OCC)C1=O` (stereo unspecified), the TGI in the assay on HS 578T breast, in the assay with UO-31 renal, in the assay with T-47D breast, in the assay with HCT-116 colon, with OVCAR-5 ovarian and in the assay on NCI-H522 lung was over 100 µM in each case. The TGI in the assay on SN12C renal, with OVCAR-8 ovarian, in the assay on SK-MEL-5 melanoma, in the assay on EKVX NSCLC, in the assay on DU-145 prostate and in the assay with SW-620 colon was over 100 µM throughout. Besides, the TGI in the assay on NCI-H460 lung, in the assay with MCF7 breast, in the assay with SNB-19 CNS, in the assay on IGROV1 ovarian and in the assay with OVCAR-4 ovarian was over 100 µM each time.

In the case of `OC(c1cccnc1)C(F)(F)c1nc2ccccc2o1` (stereo unspecified), the TGI in the assay on HS 578T breast, in the assay on HCC-2998 colon, with UO-31 renal, in the assay on RXF 393 renal, with T-47D breast and with HCT-116 colon was over 100 µM each time. Moreover, the TGI in the assay on OVCAR-8 ovarian, in the assay with SK-MEL-5 melanoma, in the assay with RPMI-8226 leukemia, in the assay on EKVX NSCLC, in the assay with DU-145 prostate and in the assay with SW-620 colon was over 100 µM throughout. Besides, the TGI with NCI-H460 lung, in the assay with MCF7 breast, in the assay with SNB-19 CNS, in the assay with IGROV1 ovarian and with OVCAR-4 ovarian was over 100 µM in each case.

As to `Cc1c2oc3c(C)ccc(C(=O)NC4C(=O)NC(C(C)C)C(=O)N5CC(=O)CC5C(=O)N(C)CC(=O)N(C)C(C(C)C)C(=O)OC4C)c3nc-2c(C(=O)NC2C(=O)NC(C(C)C)C(=O)N3CC(=O)CC3C(=O)N(C)CC(=O)N(C)C(C(C)C)C(=O)OC2C)c(N)c1=O` (stereo unspecified) (I: TV[X48][Sar][NMeV] / II: TV[X48][Sar][NMeV]; ester I:1-I:C, II:1-II:C; linker I:N-II:N via Actinocin(9to1); configuration not given here), the TGI with HCC-2998 colon, in the assay with UO-31 renal, with RXF 393 renal, with T-47D breast, with HCT-116 colon and in the assay on OVCAR-5 ovarian was over 1 µM each time. Moreover, the TGI in the assay with SN12C renal, with OVCAR-8 ovarian, in the assay with SK-MEL-5 melanoma, in the assay on RPMI-8226 leukemia, in the assay with EKVX NSCLC and in the assay on DU-145 prostate was over 1 µM each time. For the same molecule, the TGI in the assay on SW-620 colon, with NCI-H460 lung, with MCF7 breast, in the assay on SNB-19 CNS, in the assay on IGROV1 ovarian and in the assay with OVCAR-4 ovarian was over 1 µM in each case.

Regarding `Cn1c(=O)c2c(no[n+]2[O-])n(C)c1=O`, the TGI was 64.9 µM with HS 578T breast; over 100 µM in the assay with HCC-2998 colon; 97.1 µM in the assay on UO-31 renal; 94.2 µM with RXF 393 renal; over 100 µM in the assay with T-47D breast; over 100 µM with HCT-116 colon. The TGI is over 100 µM in the assay with OVCAR-5 ovarian; 30 µM with NCI-H522 lung; over 100 µM in the assay with SN12C renal; 37 µM with OVCAR-8 ovarian; over 100 µM with SK-MEL-5 melanoma; over 100 µM in the assay on RPMI-8226 leukemia. In addition, the TGI was 67.9 µM in the assay on EKVX NSCLC; 59.9 µM in the assay on SW-620 colon; over 100 µM with NCI-H460 lung; over 100 µM with MCF7 breast; 64.8 µM with SNB-19 CNS; 58.7 µM with IGROV1 ovarian. The same molecule gave a TGI with OVCAR-4 ovarian of over 100 µM.

On to `O=C1C2=Cc3ccccc3OC2(O)Oc2cc(O)ccc21` (stereo unspecified), for which the TGI with HCC-2998 colon, with RXF 393 renal, with T-47D breast, in the assay on HCT-116 colon, in the assay on OVCAR-5 ovarian and in the assay on SN12C renal was over 100 µM each time. Also, the TGI with OVCAR-8 ovarian, with SK-MEL-5 melanoma, in the assay with RPMI-8226 leukemia, in the assay with EKVX NSCLC, with DU-145 prostate and in the assay with SW-620 colon was over 100 µM in each case. Moreover, the TGI in the assay on MCF7 breast and with IGROV1 ovarian was over 100 µM each time.

Regarding `CC(=O)OCC1OC(n2c(C)c(N=Nc3ccccc3)c(C)c(C#N)c2=S)C(OC(C)=O)C(OC(C)=O)C1OC(C)=O` (stereo unspecified), the TGI in the assay with HS 578T breast is 44.8 µM; in the assay with HCC-2998 colon, over 100 µM; with UO-31 renal, over 100 µM; with RXF 393 renal it was 32.4 µM; in the assay on T-47D breast it was over 100 µM; with HCT-116 colon, 60 µM. Moreover, the TGI in the assay with OVCAR-5 ovarian, in the assay on SN12C renal, in the assay with SK-MEL-5 melanoma, with RPMI-8226 leukemia, in the assay on DU-145 prostate and in the assay on SW-620 colon was over 100 µM throughout. For the same molecule, the TGI in the assay with NCI-H460 lung, in the assay with MCF7 breast, in the assay with SNB-19 CNS, in the assay on IGROV1 ovarian and in the assay on OVCAR-4 ovarian was over 100 µM each time.

Source of the values: PubChem BioAssay (NCI).
